The term Kd denotes the constant that tells how readily two partners part at equilibrium.

We go through 10 compounds from US20240408064A1, “RAS INHIBITORS, COMPOSITIONS AND METHODS OF USE THEREOF” (GENETOLEAD INC., priority 2021, published 2024).

The target of data set [1] is T1, KRAS^G12D-GDP (Homo sapiens (Human), UniProt P01116, G12D). As to the kind of experiment: 19F T2-CPMG score, KRAS^G12D-GDP. In kind it is binding. How it is done: (§1) Since the fragment library was curated using phosphate buffer, 25 mM sodium phosphate pH 7.4, 150 mM NaCl, 5 mM MgCl2, 1 mM TCEP-d16, 10% D2O Fresh TCEP was used for experiments. Screening was performed using ^1H-decoupled 1D ^19F experiment Bruker experiment (zgfhigqn.2) with 64 scans and a relaxation delay of 5 seconds. 50 μM HRas^G12V and 240 μM of each fragment in pools (mixtures) were used.
(§2) Hit confirmation was performed using the same ^19F experiment as the screen. Ligand-observed 1D ^1H, protein-observed 1D ^1H, ^1H T2-CPMG as well as Saturation Transfer Difference (STD) experiments were also run on the same samples. Ligand-observed 1D ^1H was run using the standard Bruker sequence with excitation sculpting (zgesgp) with a relaxation delay of 10 seconds and 16 scans per spectrum. Protein-observed 1D ^1H was performed using the same sequence with a relaxation delay of 1 second and 256 scans in order to increase the signal-to-noise of the protein resonances, while keeping the experimental time relatively short. The ^1H T2-CPMG experiment employed a modified version of the Bruker 1D ^1H zgesgp experiment with the addition of a CPMG pulse train after the first 90° excitation pulse. Total duration for each spin echo was fixed at 1 ms (τ=500 μs), while the number of echoes in the pulse train was varied according to the total time (T). The number of scans for each spectrum was 4 and eight delay times were run on each sample, ranging from 1 ms to 800 ms.
(§3) The activity of compounds of the invention regarding KRAS^G12D-GDP was measured in the same as in Example 80. The results obtained with the compounds in the various assays described above are depicted in Table 23.

Data set [2] has as its target T1, KRAS^G12D-GDP. As to the kind of experiment: NMR Kd, KRAS^G12D-GDP. It counts as binding. Conditions: 1H 1D protein-observed NMR, read-out: 1H 1D PO NMR Kd. How it is done:
(§4) ^1H/^15N Fast-HSQC experiments (Mori et al., Journal of Magnetic Resonance, Series B, Volume 108, Issue 1, July 1995, Pages 94-98) were recorded at a protein concentration of 50-100 μM.
(§5) Dissociation constants were obtained by monitoring changes in chemical shifts as a function of ligand concentration. The changes in chemical shifts (d) were calculated according to the following equation (Williamson, Progress in Nuclear Magnetic Resonance Spectroscopy, Volume 73, August 2013, Pages 1-16): d=√(1/2[δ_H^2+[…]]), Where δ are the changes in chemical shift in ppm for ^1H and ^15N and the correction factor (α) was set at 0.15.
(§6) ^1H 1D protein-observed experiments were recorded with 15-50 μM protein. The standard Bruker 1D ^1H sequence with excitation sculpting (zgesgp) was employed. A relaxation delay of 1 s was employed in order to use 256 scans while still keeping experimental time fairly short. Changes in protein chemical shift or peak intensity in the methyl region were monitored against compound concentration.
as §3

Data set [3] addresses T2, HRas^G12V (Homo sapiens (Human), UniProt P01112, G12V). As to the kind of experiment: 19F DLB (ligand-observed 19F NMR) score. In kind it is binding. Also on record: scale not given here. Put shortly: (§7)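 In the T2-CPMG experiment, echo spacing was 1 ms and total delays ranged over eight values from 1 to 800 ms. Both scores come from 600 MHz NMR of 50 μM HRas G12V mixed with fragment pools at 240 μM each, in phosphate buffer pH 7.4 with NaCl, MgCl2 and TCEP-d16. Ligand-observed 19F spectra were recorded with 1H decoupling, 64 scans and a 5 s relaxation delay.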

Data set [4] deals with T1, KRAS^G12D-GDP. As to the kind of experiment: 19F DLB score, KRAS^G12D-GDP. In kind it is binding. Details: scale not given here. As to the method:
as §1, §2, §3

In data set [5] the target is T2, HRas^G12V. As to the kind of experiment: Dissociation constant by NMR (1H/15N Fast-HSQC, 1H 1D protein-observed). In kind it is binding. Conditions: HRas^G12V; read-out: NMR Kd. How it is done: All NMR experiments were collected using 3 mm NMR tubes on a 600 MHz Bruker Avance III spectrometer equipped with a QCI helium cryoprobe and a SampleJet sample changer. The buffer used for NMR experiments was 25 mM sodium phosphate pH 7.4, 150 mM NaCl, 5 mM MgCl2, 1 mM TCEP-d16, 10% D2O. Data were processed using Bruker TopSpin.
as §4, §5, §6

For data set [6], the target named is T2, HRas^G12V. As to the kind of experiment: Overall binding/activity in the various assays (NMR consensus binding). Summed up: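 Fragments (240 µM each, pooled) screened against 50 µM HRas^G12V in 25 mM sodium phosphate pH 7.4, 150 mM NaCl, 5 mM MgCl2, 1 mM TCEP-d16 by 1H-decoupled 1D 19F NMR. Hits confirmed by ligand- and protein-observed 1D 1H, STD and T2-CPMG (aggregation check); consensus binding ranked, with 15N HSQC for sites and Kd.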

In data set [7] the target is T1, KRAS^G12D-GDP. As to the kind of experiment: Overall activity in the various assays, KRAS^G12D-GDP. It counts as binding. How it is done: as §3
For data set [8], the target named is T2, HRas^G12V. As to the kind of experiment: 19F T2-CPMG NMR score. In kind it is binding. Summed up: as §7
The nature of data set [9]: Solubility and free-state aggregation in the NMR screen. In kind it is physicochemical. Conditions: NMR buffer. An excerpt:
Fragment screening has been performed using a library containing 461 fragments that has been designed using cheminformatics parameters such as Rule of Three and PAINS analysis. All fragments have been curated by ^1H and ^19F NMR for structure verification, purity, solubility in phosphate buffer and lack of apparent aggregation under these conditions. Fragments were pooled according to chemical compatibility resulting in 31 different pools to increase screening throughput. The library was provided by NMX Research in Solutions Inc.
Because of its power to probe the intrinsically weak interactions (Kd) between targets and low-molecular weight fragments, NMR fragment-based lead discovery (FBLD) is a very useful biophysical method in early stage drug discovery, especially for challenging target proteins; including those with shallow binding pockets. Since FBLD screens are performed using low-molecular weight compounds (fragments) with lower structural complexity, the same chemical space can be covered using a smaller number of drug-like fragments versus use of large libraries of higher-molecular weight lead-like compounds as in high throughput screening (HTS) campaigns. Therefore, FBLD has a much higher hit rate than HTS using only several hundred to several thousand compounds in comparison with approximately 1 million compounds for HTS. Also, the small size of the compounds screened in FBLD means a better chance to fully match the interactions with small or transient pockets within the target protein, where these less tractable pockets cannot be accessed with standard classical HTS methods. […] We expect this methodology to be more advantageous than classical HTS methods for expediting the time from hit to lead (H2L) and allows for rapid access to high quality leads with lower attrition rates in subsequent lead optimization (LO) campaigns toward pre-clinical candidate selection. FBLD screening by NMR involves a “consensus binding” approach where several distinct NMR experiments (DLB, STD, CPMG) are applied along with a free-state aggregation detection method (T2-CPMG) to rank the compounds for their affinity to the receptor (HRAS in this case) whilst simultaneously monitoring the solution behavior and critical quality attributes of each compound. The latter helps to eliminate artifact binders which are highly problematic. We performed a fluorine screen involving 461 compounds that were derived from a highly curated fragment library. Moreover, two-dimensional ^15N HSQC NMR was also used to validate ligand-binding sites on the target protein. In addition, we employed protein-detected biophysical measurements were employed to determine fragment binding affinities to the target protein (Kd) by HSQC NMR. From the results, we picked the most interesting hit were picked, FS-1255 that was identified based on consensus binding evidence from all NMR detection methods, and based the lack of free-state aggregation by T2-CPMG. We chose to prioritize on FS-1255 which was the most promising fragment hit.

Data set [10] concerns the target T3, wild type HRAS (Homo sapiens (Human), UniProt P01112). As to the kind of experiment: 19F T2-CPMG score, wild type HRAS. It counts as binding. As to the method:
as §1, §2
(§8) The activity of compounds of the invention regarding wild type HRAS was measured in the same as in Example 80. The results obtained with the compounds in the various assays described above are depicted in Table 2.

Data set [11] deals with T3, wild type HRAS. As to the kind of experiment: 19F DLB score, wild type HRAS. It counts as binding. As to the method: as §1, §2, §8
The target in data set [12] is T3, wild type HRAS. As to the kind of experiment: NMR Kd, wild type HRAS. In kind it is binding. As to the method: as §4, §5, §6, §8

Molecules are shown by their SMILES. Values joined by “and” are separate entries in the source; they are usually repeats but may differ in a detail not shown here. Equal entries are not always repeated. “Also recorded” adds a separate entry of the source. Some results are limits rather than exact numbers.

As for `CC(=O)N1CCN(C(=O)Cc2c[nH]c3cc(F)ccc23)CC1` [Compound 10040], the “19F T2-CPMG Score” value at KRAS^G12D-GDP [1] was found to be 7.49; on HRas^G12V [8], 12.69. The Kd is 5.2 mM on KRAS^G12D-GDP [2] and 4.03 to 9.5 mM at HRas^G12V [5]. Moreover, the results for the “19F DLB Score” value at HRas^G12V [3] and at KRAS^G12D-GDP [4] were 1.64 and 1.63, respectively. Besides, at HRas^G12V [6], the “Activity ranking on HRas^G12V (in words)” value was “More active”. The “Activity ranking on KRAS^G12D-GDP (in words)” value on KRAS^G12D-GDP [7] is listed as “most active”.
`COc1ccc(NC(=O)Cc2c[nH]c3cc(F)ccc23)cc1Cl` [Compound 10055]: in data set [9], the “Solution behaviour in the NMR screen” value is listed as “Not soluble”. For the same compound, the “Binding to HRas^G12V (in words)” value at HRas^G12V [6] is given as “low or no binding”.
For `COc1ccc(NC(=O)Cc2c[nH]c3cc(F)ccc23)cc1F` [Compound 10056], in that order: “Not soluble” and “low or no binding”.
In the case of `COc1ccc(NC(=O)Cc2c[nH]c3cc(F)ccc23)cc1C` [Compound 10057], in [9], the “Solution behaviour in the NMR screen” value is given as “Not soluble”. On HRas^G12V [6], the “Binding to HRas^G12V (in words)” value is “low or no binding”.
For `COC(=O)c1cc(NC(=O)Cc2c[nH]c3cc(F)ccc23)cc(OC)c1` [Compound 10060], in that order: “Not soluble” and “low or no binding”.
For `Cc1ccc(Cl)cc1NC(=O)Cc1c[nH]c2cc(F)ccc12` [Compound 10061], in that order: “Not soluble” and “low or no binding”.
For `O=C(Cc1c[nH]c2cc(F)ccc12)Nc1cccc(F)c1` [Compound 10072], in that order: “Aggregated” and “low or no binding”.
With `CN(C)CC(=O)Nc1cccc(NC(=O)C(C#N)c2c[nH]c3cc(F)ccc23)c1` (stereo not drawn) [Compound 11032], the results for the “19F DLB Score” value at HRas^G12V [3] and on wild type HRAS [11] were 4.73 and 5.76, respectively. In addition, the “19F T2-CPMG Score” value on wild type HRAS [10] and at HRas^G12V [8] was “<LLOQ” each time. Moreover, on HRas^G12V [6], the “Activity ranking on HRas^G12V (in words)” value is listed as “More active; also recorded: Most active”.
With `CN(C)Cc1[nH]c2cc(F)ccc2c1C(CC(=O)O)c1ccccc1F` (stereo not drawn) [Compound 11066], the “19F DLB Score” value at HRas^G12V [3] was found to be 0.91. In addition, the “Activity ranking on HRas^G12V (in words)” value at HRas^G12V [6] is “More active”. Moreover, the “Activity ranking on KRAS^G12D-GDP (in words)” value at KRAS^G12D-GDP [7] is “most active”. Further, the “19F T2-CPMG Score” value on HRas^G12V [8] was −0.25.
As for `CN(C)Cc1c[nH]c2cc(F)ccc12` [FS-1255, reference compound], the results for the “19F T2-CPMG Score” value on KRAS^G12D-GDP [1] and on HRas^G12V [8] were 3.62 and 5.22, respectively. In addition, the “19F DLB Score” value was 1.77 and 1.7 and 1.65 at HRas^G12V [3]; 1.51 on KRAS^G12D-GDP [4]. Moreover, the Kd at wild type HRAS [12] is 6.07 mM; at HRas^G12V [5], 9.83 to 12 mM. In addition, the “Binding to HRas^G12V (in words)” value at HRas^G12V [6] is reported as “weak binding affinity”.
